Data published in publication PMC7211193, “Evaluation of absorption, distribution, metabolism, and excretion of [^14C]-rucaparib, a poly(ADP-ribose) polymerase inhibitor, in patients with advanced solid tumors” (Investigational New Drugs, 2019).

Legend:
[1] = Metabolite profiling in pooled feces (LC-MS-Radiomatic); type: in vivo, human; conditions: for % Dose in feces: pooled fecal homogenate, % of administered dose
Procedure: For each patient, homogenized feces samples from different collection intervals were pooled in proportion to their sample weight in order to obtain a pooled sample covering 90% of the TRA recovered in feces. Aliquots of the pooled fecal samples were extracted at least twice with acetonitrile. The obtained supernatant was evaporated. The dried residues were reconstituted in 40% DMSO in water to obtain maximum recovery. An aliquot of the supernatant was analyzed for TRA to determine extraction efficiency, and the mean recovery was ≈75%. Aliquots of the supernatants were injected into the HPLC coupled to UV and radioactive detectors to obtain metabolite profiles. The sample supernatants were also analyzed using LC-MS to identify metabolites.
(§1) Metabolite profiling and identification were performed on an LC system (Agilent) coupled to an LTQ Orbitrap mass spectrometer (Thermo Electron, Waltham, MA, USA) in combination with offline TopCount (LC-MS-TopCount) or online Radiomatic 625TR (LC-MS-Radiomatic; PerkinElmer). Proposed structures of the metabolites were based on accurate mass (<5 ppm) and comparison of mass spectral data of parent compound rucaparib and metabolite standard M324. The Radiomatic 625TR flow detector, equipped with a 200 μL flow cell, was operated using scintillation cocktail (Ultima-Flo M) delivered at a flow rate of 1 mL/min. Chromatography was done using a Phenomenex (Torrance, CA, USA) Luna Phenyl-Hexyl column (250 × 2 mm, 5 μm, 100 Å) at ambient temperature during the sample analysis. The mobile phase was (A) 0.05% TFA in water and (B) 0.05% TFA in acetonitrile, with a 0.2 mL/min flow rate. The gradient was as follows: 5% B over 2.1 min, to 20% B in 1.0 min, to 35% B in 16.9 min, isocratic at 35% B for 5 min, to 95% B over 5 min, and reduced to 5% B over 1 min, with total run time 45 min.
(§2) The abundance of unchanged rucaparib and metabolites identified in plasma, urine, and feces was determined as a percentage of the TRA in the analyzed samples. Percentage of the administered dose of rucaparib and metabolites was calculated in urine and feces (formula A). The concentration of rucaparib and its metabolites in plasma (ng Eq h/mL) was calculated based on the specific activity, TRA, and percentage of peaks (formula B). The AUC0-24h value of rucaparib and its major metabolite M324 in plasma was calculated using both Hamilton method (formula C) and linear trapezoidal method (formula D). • (A) %Doseofmetabolite=TRAinurineorfeces(dpm)÷TRAinadministereddose(dpm)×%metabolitesinmatrix • (B) Metaboliteconcentrationsinplasma(ngEq/mL)=TRAinplasma(dpm/mL)specificactivity(ngEq/dpm)×%metabolitesinthematrix • (C) Hamiltonmethod:AUC0−24h(ngEqh/mL)=concentrationinHamilton(AUC0−24h)pooledplasma(ngEq/mL)×24(h) • (D) Lineartrapezoidalmethod:AUC0−24h(ngEqh/mL)=C1h/2×1h+C1h+C4h/2×(4h−1h)+C4h+C8h/2×(8h−4h)+C8h+C24h/2×(24h−8h)

[2] = Metabolite profiling in plasma (LC-MS-TopCount); type: in vivo, human
Procedure: Plasma samples from six patients were pooled using two methods: (1) A Hamilton pool plasma (0–24 h) for metabolite profile determination was prepared by combining plasma aliquots of a volume proportional to the time interval used for calculating the AUC (AUC0-24h pool) for each patient and (2) four time-point pooling samples were obtained by equal volume pool at 1, 4, 8, and 24 h across six patients. In addition, plasma samples at 1, 8, and 24 h were selected from three patients (Patients 03, 08, and 09) for metabolite profiles analysis to check the individual differences between patients. Samples collected after 24 h post dose were not included in the pooling due to the low radioactivity at later time points. All plasma samples (pooled and from individuals) were extracted at least two times with acetonitrile. All supernatants were evaporated to dryness, and the dried residues were reconstituted in 20% acetonitrile in water containing 0.1% TFA. The sample recovery was obtained by comparing the radioactivity concentrations before and after extraction, and the mean recovery was about 70%.
Aliquots of the supernatants were injected into the HPLC, and the HPLC elutes were collected as fractions at intervals of 30 sec per well into LumaPlate-96 DeepWell microplates (PerkinElmer). Due to the low radioactivity in each plasma sample, metabolite profiles were obtained by TopCount (PerkinElmer) analysis of HPLC elutes. The fractions were dried at room temperature, and then analyzed by a TopCount NXT radiometric microplate reader (PerkinElmer) to obtain metabolite profiles. The supernatants of extracts were also analyzed using an LC-MS method to identify metabolites.
as §1, §2

[3] = 0-24 h pooled plasma, N = 6, mean ± SD

CNCc1ccc(-c2[nH]c3cc(F)cc4c3c2CCNC4=O)cc1 [Rucaparib, rucaparib]
% of dose in pooled fecal homogenate, Patient 01 ([1]; Patient 01): 50.6 % dose | % of dose in pooled fecal homogenate, Patient 05 ([1]; Patient 05): 55.8 % dose | % of dose in pooled fecal homogenate, Patient 06 ([1]; Patient 06): 70.1 % dose | % of dose in pooled fecal homogenate, Patient 08 ([1]; Patient 08): 68.2 % dose | % of dose in pooled fecal homogenate, Patient 09 ([1]; Patient 09): 71.8 % dose | % Peak (of TRA) in feces ([1]; pooled fecal homogenate covering >90% of fecal excretion, N = 6, mean ± SD): 94.9 ± 4.95% | % Dose in feces ([1]; N = 6, mean ± SD): 63.9 ± 8.60% | % Dose in feces ([1]; N = 6, mean ± SD, listed as rucaparib): 63.9% and ≈ 64% | % Peak (of plasma radioactivity), Hamilton (AUC0-24h) pooled plasma [2, 3]: 64.0 ± 13.7% | Concentration, Hamilton (AUC0-24h) pooled plasma [2, 3]: 335 ± 120 ng Eq/mL | % Peak (of plasma radioactivity), Hamilton (AUC0-24h) pooled plasma ([2]; 0-24 h pooled plasma, N = 6, mean ± SD, listed as rucaparib): 64.0% and ≈ 64% | % Radioactive peaks in individual plasma, Patient 03, 1 h ([2]; Patient 03, 1 h): 75.0% | % Radioactive peaks in individual plasma, Patient 03, 8 h ([2]; Patient 03, 8 h): 66.7% | % Radioactive peaks in individual plasma, Patient 03, 24 h ([2]; Patient 03, 24 h): 36.1% | % Radioactive peaks in individual plasma, Patient 08, 1 h ([2]; Patient 08, 1 h): 92.1% | % Radioactive peaks in individual plasma, Patient 08, 8 h ([2]; Patient 08, 8 h): 68.2% | % Radioactive peaks in individual plasma, Patient 08, 24 h ([2]; Patient 08, 24 h): 38.5% | % Radioactive peaks in individual plasma, Patient 09, 1 h ([2]; Patient 09, 1 h): 84.6% | % Radioactive peaks in individual plasma, Patient 09, 8 h ([2]; Patient 09, 8 h): 82.1% | % Radioactive peaks in individual plasma, Patient 09, 24 h ([2]; Patient 09, 24 h): 56.5% | % Radioactive peaks in individual plasma, Mean ± SD, 1 h ([2]; Patients 03, 08, 09, 1 h): 83.9 ± 8.57% | % Radioactive peaks in individual plasma, Mean ± SD, 8 h ([2]; Patients 03, 08, 09, 8 h): 72.3 ± 8.49% | % Radioactive peaks in individual plasma, Mean ± SD, 24 h ([2]; Patients 03, 08, 09, 24 h): 43.7 ± 11.1% | AUC0-24h, Hamilton (AUC0-24h) pooled plasma ([2]; concentration in 0-24-h pooled sample × 24 h): 8040 ng Eq h/mL | concentration at 1 h ([2]; human, plasma, oral, 600 mg, single pooled sample from all six patients, 1 h, read-out: Mean concentration, time point pooled plasma, 1 h): 317 ng/mL | concentration at 4 h ([2]; human, plasma, oral, 600 mg, single pooled sample from all six patients, 4 h, read-out: Mean concentration, time point pooled plasma, 4 h): 590 ng/mL | concentration at 8 h ([2]; human, plasma, oral, 600 mg, single pooled sample from all six patients, 8 h, read-out: Mean concentration, time point pooled plasma, 8 h): 545 ng/mL | concentration at 24 h ([2]; human, plasma, oral, 600 mg, single pooled sample from all six patients, 24 h, read-out: Mean concentration, time point pooled plasma, 24 h): 151 ng/mL | Mean AUC0-24h, time point pooled plasma ([2]; trapezoidal method from 1, 4, 8, 24 h pools): 9360 ng Eq h/mL
